Assay results from the supplement of paper PMC4977894.
± gives the standard deviation of the averaged measurements.

Columns and labels:
[1] = system: Homo sapiens (human subject panel, olfactory perception); test: perceived odor familiarity rating (rating 0-100); higher = more familiar
Experimental: (§1)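 Human olfactory psychophysics. 55 healthy subjects (after excluding 6 low performers) sniffed 1 mL of each odorant diluted in paraffin oil (vials, two dilutions per molecule, 20 molecules presented twice). Each subject rated intensity, pleasantness and familiarity on a 0-100 slider, starting at 50 and required to move. Ratings were given only when the subject reported detecting a smell; per-subject ratings are averaged over subjects.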

[2] = system: Homo sapiens (human subject panel, olfactory perception); test: perceived odor intensity rating (rating 0-100); higher = stronger perceived smell
Experimental: as §1

[3] = system: Homo sapiens (human subject panel, olfactory perception); test: perceived odor pleasantness rating (rating 0-100); higher = more pleasant
Experimental: as §1

[4] = odor dilution in paraffin oil: 1/10
[5] = odor dilution in paraffin oil: 1/1,000
[6] = odor dilution in paraffin oil: 1/100,000
[7] = odor dilution in paraffin oil: 1/10,000,000

Compound	perceived odor familiarity rating [1, 4]	perceived odor familiarity rating [1, 5]	perceived odor intensity rating [2, 4]	perceived odor intensity rating [2, 5]	perceived odor pleasantness rating [3, 4]	perceived odor pleasantness rating [3, 5]	perceived odor familiarity rating [1, 6]	perceived odor familiarity rating [1, 7]	perceived odor intensity rating [2, 6]	perceived odor intensity rating [2, 7]	perceived odor pleasantness rating [3, 6]	perceived odor pleasantness rating [3, 7]
CCCCCCCCCCC [undecane]	41.7 ± 32	35 ± 29	56.4 ± 31	21 ± 26	32.3 ± 21	53.3 ± 23						
CC(=O)O [acetic acid]							42 ± 32	35.5 ± 32	21.2 ± 25	11.8 ± 16	47.8 ± 24	46.1 ± 18
COc1ccc2ccc(=O)oc2c1 [7-Methoxycoumarin]	52 ± 30	47.2 ± 29	62 ± 26	42.3 ± 24	62 ± 25	59.3 ± 25						
CC1CC[C@H](C(C)C)[C@@H](O)C1 (stereo not given in full) [( + )-menthol]	73.7 ± 26	51.8 ± 29	83.4 ± 14	51 ± 31	55.3 ± 28	52 ± 24						
c1ccc(-c2ccccc2)cc1 [Biphenyl]	42.5 ± 33	36.2 ± 28	77.6 ± 20	31.7 ± 26	31.3 ± 24	51.4 ± 21						
CC(C)COC(=O)c1ccccc1 [Isobutyl benzoate]	53.3 ± 30	41.1 ± 29	78.7 ± 20	36.7 ± 31	47.6 ± 29	49 ± 26						
CCCCOC(=O)CC [Butyl Propionate]		50.6 ± 30		62 ± 25		54.6 ± 26	31.9 ± 33		18 ± 25		46.5 ± 25	
CCCCCCC(C)=O [2-octanone]		51.9 ± 26		66.8 ± 26		52.5 ± 25	36.6 ± 25		20 ± 26		52.2 ± 16	
OCc1ccccc1 [benzyl alcohol]	55 ± 29	40.2 ± 25	74.2 ± 18	45.4 ± 26	46.7 ± 25	52.4 ± 20						
CC(=O)c1ccc2ccccc2c1 [Methyl beta-naphthyl ketone]	58 ± 30	62.6 ± 27	78.8 ± 16	63.8 ± 26	54.4 ± 30	60.7 ± 25						
CC(=O)OCCc1ccccc1 [Phenethyl acetate]		59.1 ± 32		62.1 ± 28		54.9 ± 28	52.2 ± 34		38.2 ± 32		56.9 ± 24	
CC=Cc1ccc(OC(C)=O)c(OC)c1 [isoeugenol acetate]	57.1 ± 31	58.8 ± 28	57.6 ± 30	46.1 ± 28	58.3 ± 26	66.8 ± 25						
CCc1ccco1 [2-Ethylfuran]		45.4 ± 31		52.4 ± 31		34.4 ± 24	31.4 ± 29		42.2 ± 35		38.3 ± 30	
C=CCOC(=O)/C(C)=C/C [Allyl tiglate]		49.6 ± 31		71.9 ± 24		41.1 ± 28	46.1 ± 32		48 ± 29		44.3 ± 23	
CC(=O)c1cc2c(cc1C)C(C)(C)C(C)CC2(C)C (stereo not given) [6-Acetyl-1,1,2,4,4,7-Hexamethyltetralin]	57.3 ± 30	49.1 ± 31	51.7 ± 28	29.8 ± 28	67.4 ± 24	67.7 ± 21						
Cc1ccc(C)[nH]1 [2,5-Dimethylpyrrole]		62 ± 28		71.4 ± 23		53 ± 27	48 ± 31		50.6 ± 30		48.2 ± 26	
CC(=O)OC(C)C [isopropyl acetate (replicate)]		46.2 ± 33		49.4 ± 34		41.3 ± 23	44.5 ± 32		22.7 ± 22		49.9 ± 25	
COC1=C(C)OC(C)C1=O (stereo not given) [2,5-Dimethyl-4-methoxy-3(2H)-furanone]		45.4 ± 33		74.8 ± 24		26 ± 19	44.1 ± 28		56.3 ± 31		28.2 ± 23	

Compound	perceived odor familiarity rating [1, 4]	perceived odor familiarity rating [1, 5]	perceived odor intensity rating [2, 4]	perceived odor intensity rating [2, 5]	perceived odor pleasantness rating [3, 4]	perceived odor pleasantness rating [3, 5]	perceived odor familiarity rating [1, 6]	perceived odor familiarity rating [1, 7]	perceived odor intensity rating [2, 6]	perceived odor intensity rating [2, 7]	perceived odor pleasantness rating [3, 6]	perceived odor pleasantness rating [3, 7]
C[S+](C)[O-] [Methyl sulfoxide]	41.7 ± 33	41.6 ± 29	50.7 ± 30	35.3 ± 31	36.7 ± 24	32.1 ± 26						
CO [methanol]	37.9 ± 29	30.9 ± 25	35 ± 30	18 ± 24	39.5 ± 23	42.7 ± 22						
CCCCCCCCCCC(=O)OCC [Ethyl undecanoate]	49.9 ± 34	46.8 ± 28	69.9 ± 21	38.8 ± 28	52.8 ± 26	50.1 ± 28						
CCCCC(=O)OC [Methyl valerate]		55.1 ± 31		65.2 ± 26		42.4 ± 31	46.1 ± 28		49.4 ± 30		48.8 ± 28	
CSCC[C@H](N)C(=O)O [L-Methionine]	45.7 ± 36	41.6 ± 30	78.9 ± 23	48.3 ± 34	18.4 ± 21	31.5 ± 25						
CC(C)C(=O)OCCOc1ccccc1 [2-Phenoxyethyl isobutyrate]	44 ± 30	30.3 ± 31	58.7 ± 26	27.5 ± 29	43.8 ± 22	55.1 ± 26						
C=CCOC(=O)CCCCCC [Allyl heptanoate]		57.9 ± 31		53.9 ± 31		73.7 ± 20	37.8 ± 29		22.2 ± 26		55.4 ± 23	
O=C(OCc1ccccc1)c1ccccc1O [Benzyl salicylate]	40.7 ± 29	38 ± 28	48.6 ± 30	28.4 ± 28	57.6 ± 23	53.6 ± 24						
CC(=O)OC(C)C [isopropyl acetate]		40.1 ± 30		13.3 ± 20		51.5 ± 21	47.6 ± 27		20.2 ± 23		50 ± 23	
c1coc(Cn2cccc2)c1 [1-Furfurylpyrrole]		40.7 ± 32		76.3 ± 22		28.7 ± 24	34.3 ± 25		30.9 ± 29		46.8 ± 19	
CC(C)=O [acetone]	40.6 ± 28	38.8 ± 31	37 ± 32	30 ± 29	56.6 ± 25	51.2 ± 24						
CC(=O)c1c(C)c([N+](=O)[O-])c(C(C)(C)C)c([N+](=O)[O-])c1C [musk ketone]	53 ± 30	50.2 ± 27	48.1 ± 34	49.3 ± 32	65.2 ± 23	63.1 ± 25						
C/C=C/C=C/C(=O)OCC [Ethyl sorbate]		53.1 ± 29		75.4 ± 17		35.3 ± 26	41.5 ± 30		26.1 ± 27		54.8 ± 20	
C=CCCC(=O)O [4-Pentenoic acid]		48.1 ± 34		80.5 ± 22		14.1 ± 18	44.9 ± 32		65 ± 29		15.7 ± 18	
C/C=C/C(=O)[C@H](C)CC [5-Methyl-2-hepten-4-one]							45.1 ± 31	40.8 ± 31	69.2 ± 27	26 ± 28	45.3 ± 28	64.7 ± 25
CCCCCCCCCC=O [decanal]	51.9 ± 35	44 ± 30	78.9 ± 20	59.9 ± 25	28.7 ± 23	33.3 ± 23						
C=CCc1ccc(OC)c(OC)c1 [4-allyl-1,2-dimethoxy benzene]		45.6 ± 30		37.5 ± 29		54.4 ± 25	39.8 ± 29		17.2 ± 21		55.3 ± 24	
